Experimental data as given in the RepoRT retention time repository (doi:10.1021/acs.analchem.2c02893).

assay: RP, Thermo Scientific Acclaim RSLC 120 C18, 100 × 2.1 mm, 2.2 µm, 30 °C, 0.2 mL/min, estimated dead time 1.1 min; A: 90% water + 10% methanol + 0.01% formic acid + 5 mM ammonium formate, pH 3.61; B: methanol + 0.01% formic acid + 5 mM ammonium formate, pH 3.61; gradient (min/%B) 0/1 1/1 2/39 13/99.9 15/99.9 15.1/1 20.1/1; details: stereoisomer not certain

| Structure (SMILES) | LC retention time [min] |
| --- | --- |
| CCCC(Cc1ccccc1)N1CCCC1 (stereo not drawn) [Prolintane] | 5.56 |
| COP(=S)(OC)Oc1cc(Cl)c(Cl)cc1Cl [Fenclofos.Ronnel] | 12.5 |
| CCN(C(=O)SCc1ccccc1)C(C)C(C)C (stereo not drawn) [Esprocarb] | 12.2 |
| CC12CCC3C4CCC(=O)C=C4CCC3C1CCC2OC(=O)CCc1ccccc1 (stereo not drawn) [Nandrolone phenylpropionate] | 13.6 |
| CC(C(O)c1ccccc1)N(C)C (stereo not drawn) [Methylephedrine] | 3.73 |
| CCCCCn1nc(C(=O)Oc2cccc3ccccc23)c2ccccc21 [SDB-005] | 13.1 |
| Cc1cc(C)c(C2=C(OC(=O)CC(C)(C)C)C3(CCCC3)OC2=O)c(C)c1 [Spiromesifen] | 12.8 |
| CN(C)C(=O)NC1CCCCCCC1 [Cycluron] | 8.47 |
| COP(=S)(OC)Oc1nc(Cl)c(Cl)cc1Cl [Chlorpyriphos-methyl] | 11.7 |
| CCCc1cc(OC)c(CCN)cc1OC [2 C-P] | 7.46 |
| C#CCN1C(=O)COc2cc(F)c(N3C(=O)C4=C(CCCC4)C3=O)cc21 [Flumioxazin] | 8.73 |
| CCCCCn1cc(C(=O)Cc2cccc(OC)c2)c2ccccc21 [JWH-302] | 11.6 |
| O=C1CN=C(c2ccccc2Cl)c2cc(Cl)ccc2N1 [Delorazepam] | 8.81 |
| CNC(C)C(=O)c1ccccc1 (stereo not drawn) [Methcathinone] | 3.68 |
| COc1cc(OC)nc(NC(=O)NS(=O)(=O)c2ncccc2C(F)(F)F)n1 [Flazasulfuron] | 8.56 |
| N=c1nc(N2CCCCC2)cc(N)n1O [Minoxidil] | 4.88 |
| S=C1N=CN=C2N=CN=C12 [Mercaptopurine (6-)] | 2.61 |
| COC(=O)N(OC)c1ccccc1COc1ccn(-c2ccc(Cl)cc2)n1 [Pyraclostrobin] | 11.2 |

| Structure (SMILES) | LC retention time [min] |
| --- | --- |
| CC[N+]1(C)C2CC(OC(=O)C(CO)c3ccccc3)CC1C1OC12 (stereo not drawn) [Oxitropium] | 3.87 |
| O=C1C2CC=CCC2C(=O)N1SC(Cl)(Cl)Cl (stereo not drawn) [Captan] | 8.77 |
| CCNc1nc(NC(C)C)[nH]c(=O)n1 [Atrazine-2-hydroxy] | 5.03 |
| CN1CCC23c4c5ccc(O)c4OC2C(=O)CCC3C1C5 (stereo not drawn) [Hydromorphone] | 2.91 |
| CC(C)=CCN1CCC2(C)c3cc(O)ccc3CC1C2C (stereo not drawn) [Pentazocine] | 5.46 |
| Cc1nnc2n1-c1ccc([N+](=O)[O-])cc1C(c1ccccc1Cl)=NC2 [Clonazolam] | 7.24 |
| CCc1cc(OC)c(CC(C)N)cc1OC (stereo not drawn) [DOET] | 6.88 |
| CN(C)C(=N)N=C(N)N [Metformin] | 1.39 |
| Nc1ccc2c(c1)C(c1ccccc1Cl)=NCC(=O)N2 [Clonazepam- 7-Amino] | 4.86 |
| Cc1c(COC(=O)C2C(C=C(Cl)C(F)(F)F)C2(C)C)cccc1-c1ccccc1 (stereo not drawn) [Bifenthrin] | 14.1 |
| CCCCCCCCCCCCCCCC[N+](C)(C)C [Hexadecyltrimethylammonium] | 12.9 |
| O=[N+]([O-])c1cncn1CCN1CCOCC1 [Nimorazole] | 4.09 |
| CCOP(=O)(OCC)Oc1cc(C)nc(C(C)C)n1 [Diazinon-O-analog] | 8.65 |
| CCCCCn1cc(C(=O)c2cccc3ccccc23)c2ccccc21 [JWH-018] | 12.4 |
| COC(=O)c1cc(Oc2ccc(Cl)cc2Cl)ccc1[N+](=O)[O-] [Bifenox] | 11.5 |
| CCOP(=S)(OCC)SCSC(C)(C)C [Terbufos] | 12.2 |
| CNc1nc(NC(C)C)nc(SC)n1 [Desmetryn] | 8.17 |
| CC(C)N(C(=O)CCl)c1ccccc1 [Propachlor] | 8.25 |

Results, then the compound that gave them:

| LC retention time [min] | Structure (SMILES) |
| --- | --- |
| 9.79 | CC(C)(C)NC(=O)C1CN(Cc2cccnc2)CCN1CC(O)CC(Cc1ccccc1)C(=O)NC1c2ccccc2CC1O (stereo not drawn) [Indinavir] |
| 4.28 | CN1CCc2cccc3c2C1Cc1ccc(O)c(O)c1-3 (stereo not drawn) [Apomorphine] |
| 8.2 | CC(C)N1CCN(c2ccc(OCC3COC(Cn4cncn4)(c4ccc(Cl)cc4Cl)O3)cc2)CC1 (stereo not drawn) [Terconazole] |
| 10.6 | CCCc1nn(C)c2c(=S)nc(-c3cc(S(=O)(=O)N4CCN(C)CC4)ccc3OCC)[nH]c12 [Sildenafil-Thio] |
| 12.1 | CCCCCCCCCCCC(=O)NCC(C)O (stereo not drawn) [Lauric isopropanolamide] |
| 9.82 | Cc1ccc(C(C)NC(=O)C(NC(=O)OC(C)C)C(C)C)cc1 (stereo not drawn) [Iprovalicarb] |
| 6.41 | COc1ccccc1N1CCN(CCCC(=O)c2ccc(F)cc2)CC1 [Fluanisone] |
| 7.9 | CCc1cc2c(cc1CC)CC(NCC(O)c1ccc(O)c3[nH]c(=O)ccc13)C2 (stereo not drawn) [Indacaterol] |
| 7.06 | O=C1OC(c2ccc(O)cc2)(c2ccc(O)cc2)c2ccccc21 [Phenolphthalein] |
| 3.93 | CC(C)NCC(O)COc1ccc(CC(=O)O)cc1 (stereo not drawn) [Atenolol acid (Metoprolol acid)] |
| 8.35 | C#CC(C)N(C)C(=O)Nc1ccc(Cl)cc1 (stereo not drawn) [Buturon] |
| 10.6 | CCCc1nc(C)c2c(=O)[nH]c(-c3cc(S(=O)(=O)N4CCCCC4)ccc3OCC)nn12 [Vardenafil-Pseudo] |
| 4.42 | Cc1cccc(C(=O)O)c1N(Cn1cccn1)C(=O)C(=O)O [Metazachlor BH479-12] |
| 7.99 | O=C1NCC(=O)N2C1Cc1c([nH]c3ccccc13)C2c1ccc2c(c1)OCO2 (stereo not drawn) [Tadalafil-Nor] |
| 6.08 | CN(C)CCOC(c1ccc(Cl)cc1)c1ccccn1 (stereo not drawn) [Carbinoxamine] |
| 8.32 | CC(COc1ccccc1Cc1ccccc1)N1CCCCC1 (stereo not drawn) [Benproperine] |
| 8.49 | Nc1ccc(N=Nc2ccccc2)c(N)n1 [Phenazopyridine] |
| 12 | CC(C)OC(=O)c1cc(C(=O)OC(C)C)cc([N+](=O)[O-])c1 [Nitrothal-isopropyl] |
| 2.98 | CC(=O)N(CC(O)CO)c1c(I)c(C(=O)NCC(O)CO)c(I)c(C(=O)NCC(O)CO)c1I (stereo not drawn) [Iohexol] |
| 8.43 | Cc1ccsc1C(=CCCN1CCCC(C(=O)O)C1)c1sccc1C (stereo not drawn) [Tiagabine] |
| 4.69 | CCCNC(C)C(=O)Nc1ccccc1C (stereo not drawn) [Prilocaine] |
| 9.35 | CC(=O)OCC(=O)C12N=C(C)OC1CC1C3CCC4=CC(=O)C=CC4(C)C3C(O)CC12C (stereo not drawn) [Deflazacort] |
| 12.9 | CCC(C)(C)c1ccc(CC(C)CN2CC(C)OC(C)C2)cc1 (stereo not drawn) [Amorolfine] |
| 6.67 | Cc1cccc(Nc2ccncc2S(=O)(=O)NC(=O)NC(C)C)c1 [Torasemide] |
| 8.25 | CC1(OC(=O)C=Cc2ccccc2)CC(O)C2(O)C=COC(OC3OC(CO)C(O)C(O)C3O)C12 (stereo not drawn) [Harpagoside] |
| 8.83 | OCc1cc(C(O)CNCCCCCCOCCCCc2ccccc2)ccc1O (stereo not drawn) [Salmeterol] |
| 5.54 | COCCN(C(=O)CS(=O)(=O)O)c1c(C)cccc1C [Dimethachlor-ESA] |
